Results reported in patent EP4678638A1, “NEW E3 UBIQUITIN LIGASE LIGAND, PROTEIN DEGRADATION AGENT AND USE THEREOF” (priority 2023, dated 2024).

How the values were obtained:
BXPC-3 = assay: CCK-8 proliferation, BXPC-3; type: cell-based; settings: Homo sapiens, 96 hours, read-out: Inhibitory activity (IC50) on tumor cell proliferation, BXPC-3
Experimental: (§1) The tumor cells used herein were cultured in a cell culture medium listed in table A1 at 37°C in an incubator with 5% CO2. Prior to experimentation, all cell lines used were correctly identified by STR profiling, and tested negative for mycoplasma contamination using a mycoplasma detection kit through routine screenings. Table A1. Tumor cells and cell culture medium used in the present disclosure
(§2) IC50 values of the compounds of the present disclosure (including the compounds in Table 1, and compounds of examples) were measured using the Meilun Cell Counting Kit-8 kit from Dalian Meilun Biotech Co., Ltd. Assay details are as follows: tumor cells were seeded in a 96-well plate at a density listed in Table A2. After 24h, 100 µL of the inoculated cells were treated with 0.5µL of the compounds of the present disclosure (including the compounds in Tables 1 and 2, and compounds of examples) at 10 different successively decreasing concentrations (starting at the highest concentration of 10µM; 5-fold serial dilutions). After the cells were treated with the compounds of the present disclosure for a period of time, the cell viability detection reagent was added to the culture medium for cell viability assessment according to the instructions provided with the CCK-8 kit. […] The growth inhibition of the compounds of the present disclosure on cells was plotted by Prism Graphpad software, and the IC50 values of the compounds of the present disclosure were calculated therefrom. […] Seeding protocol and treatment time for tumor cells

THP-1 = assay: CCK-8 proliferation, THP-1; type: cell-based; settings: Homo sapiens, 72 hours, read-out: Inhibitory activity (IC50) on tumor cell proliferation, THP-1
Summary of the method: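 Tumor cells were cultured at 37°C with 5% CO2, seeded, and after 24h treated with compounds at 10 concentrations starting at 10µM (5-fold serial dilutions).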

H520 = assay: CCK-8 proliferation, H520; type: cell-based; settings: Homo sapiens, NCI-H520, 96 hours, read-out: Inhibitory activity (IC50) on tumor cell proliferation, H520
Experimental: as §1, §2

[1] = target: T1, human Cereblon WT GST-tagged protein (Homo sapiens, UniProt Q96SW2); assay: CRBN binding, HTRF (CEREBLON BINDING kit); settings: Table II-2, CRBN binding screening, HTRF
T1 construct: purchased CISBIO 64BDCRBNPEH
T1 sequence (Q96SW2 whole entry): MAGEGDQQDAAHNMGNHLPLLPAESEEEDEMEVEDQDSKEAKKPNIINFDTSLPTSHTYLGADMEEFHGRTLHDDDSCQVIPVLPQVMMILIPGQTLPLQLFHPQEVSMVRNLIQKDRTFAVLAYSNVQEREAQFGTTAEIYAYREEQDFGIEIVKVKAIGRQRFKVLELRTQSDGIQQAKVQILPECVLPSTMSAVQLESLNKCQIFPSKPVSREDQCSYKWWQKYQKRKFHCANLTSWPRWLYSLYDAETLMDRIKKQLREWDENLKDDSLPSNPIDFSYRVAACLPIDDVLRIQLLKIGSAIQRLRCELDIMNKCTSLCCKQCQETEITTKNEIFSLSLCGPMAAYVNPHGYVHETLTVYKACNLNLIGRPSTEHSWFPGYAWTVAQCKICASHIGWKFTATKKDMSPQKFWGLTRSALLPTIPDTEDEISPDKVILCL
Summary of the method: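 After 3 h at room temperature, emission at 665 and 620 nm was measured in a homogeneous time-resolved fluorescence format. Compounds competed with a Thalidomide-Re probe for GST-tagged wild-type human CRBN, which was labelled with a Eu anti-GST antibody.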

AR = target: T2, AR (Homo sapiens, UniProt P10275+Q96SW2, T878A); assay: Western blot degradation of AR (LnCap Cell); type: cell-based; settings: Table D11
T2 construct: evaluate the effects of the compounds of the present disclosure on the expression of target proteins in cells; endogenous in cells; host or cells: LnCap
T2 sequence (P10275 whole entry T878A): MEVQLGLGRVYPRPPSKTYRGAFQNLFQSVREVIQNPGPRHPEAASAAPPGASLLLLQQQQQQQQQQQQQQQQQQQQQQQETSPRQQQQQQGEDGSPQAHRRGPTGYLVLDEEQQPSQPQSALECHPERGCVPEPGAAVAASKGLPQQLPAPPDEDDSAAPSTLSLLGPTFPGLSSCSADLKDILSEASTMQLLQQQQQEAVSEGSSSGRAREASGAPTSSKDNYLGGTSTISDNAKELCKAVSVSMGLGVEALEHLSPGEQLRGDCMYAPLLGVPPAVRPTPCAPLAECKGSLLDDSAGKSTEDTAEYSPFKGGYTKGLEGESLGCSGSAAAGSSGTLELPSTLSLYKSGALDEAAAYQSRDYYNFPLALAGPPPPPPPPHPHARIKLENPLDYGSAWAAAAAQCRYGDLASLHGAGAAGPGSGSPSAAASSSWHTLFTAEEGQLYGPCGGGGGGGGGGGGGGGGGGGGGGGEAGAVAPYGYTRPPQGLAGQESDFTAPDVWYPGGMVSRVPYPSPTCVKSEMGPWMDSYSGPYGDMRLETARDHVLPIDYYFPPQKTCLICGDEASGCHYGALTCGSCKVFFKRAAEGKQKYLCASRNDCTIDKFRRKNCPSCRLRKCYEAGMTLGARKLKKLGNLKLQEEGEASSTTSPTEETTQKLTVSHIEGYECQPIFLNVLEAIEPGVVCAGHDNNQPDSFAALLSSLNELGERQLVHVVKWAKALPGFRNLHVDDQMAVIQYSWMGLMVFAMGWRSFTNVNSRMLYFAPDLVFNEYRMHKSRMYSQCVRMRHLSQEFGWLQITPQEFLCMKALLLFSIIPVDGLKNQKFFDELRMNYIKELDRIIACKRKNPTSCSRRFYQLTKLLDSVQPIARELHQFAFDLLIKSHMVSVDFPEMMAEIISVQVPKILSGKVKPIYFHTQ
T2 sequence (Q96SW2 whole entry): as the sequence (Q96SW2 whole entry) above
T2 sequence (Q16531 whole entry partner): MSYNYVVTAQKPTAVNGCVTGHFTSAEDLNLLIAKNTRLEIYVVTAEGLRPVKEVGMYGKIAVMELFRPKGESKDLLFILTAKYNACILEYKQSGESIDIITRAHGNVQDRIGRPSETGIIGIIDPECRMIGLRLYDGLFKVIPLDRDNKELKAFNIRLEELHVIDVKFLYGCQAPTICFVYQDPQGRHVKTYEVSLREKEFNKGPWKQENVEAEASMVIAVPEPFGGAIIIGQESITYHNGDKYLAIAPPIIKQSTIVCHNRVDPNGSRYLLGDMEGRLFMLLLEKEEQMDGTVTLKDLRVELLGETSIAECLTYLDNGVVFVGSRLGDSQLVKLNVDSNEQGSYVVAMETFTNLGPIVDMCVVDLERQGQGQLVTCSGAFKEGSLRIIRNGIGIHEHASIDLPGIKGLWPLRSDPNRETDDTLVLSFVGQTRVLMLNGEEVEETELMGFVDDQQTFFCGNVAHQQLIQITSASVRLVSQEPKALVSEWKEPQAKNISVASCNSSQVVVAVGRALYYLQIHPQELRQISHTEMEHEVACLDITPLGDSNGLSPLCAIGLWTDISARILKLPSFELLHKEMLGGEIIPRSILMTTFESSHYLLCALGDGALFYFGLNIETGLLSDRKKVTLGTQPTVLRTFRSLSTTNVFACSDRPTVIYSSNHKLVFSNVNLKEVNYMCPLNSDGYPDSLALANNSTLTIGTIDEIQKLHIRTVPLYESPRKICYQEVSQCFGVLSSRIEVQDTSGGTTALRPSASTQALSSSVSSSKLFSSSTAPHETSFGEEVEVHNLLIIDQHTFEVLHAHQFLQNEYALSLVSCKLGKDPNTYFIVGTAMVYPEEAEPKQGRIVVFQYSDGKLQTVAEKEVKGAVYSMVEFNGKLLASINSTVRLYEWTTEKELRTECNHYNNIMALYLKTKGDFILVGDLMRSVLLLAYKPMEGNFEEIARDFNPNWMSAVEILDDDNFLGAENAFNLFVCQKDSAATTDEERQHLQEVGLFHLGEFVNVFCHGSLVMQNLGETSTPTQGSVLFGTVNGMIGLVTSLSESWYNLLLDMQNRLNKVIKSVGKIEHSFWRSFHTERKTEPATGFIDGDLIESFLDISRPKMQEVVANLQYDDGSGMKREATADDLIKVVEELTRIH
Experimental: Conventional Western blot assay was performed to evaluate the effects of the compounds of the present disclosure on the expression of target proteins in cells.
(1) Cell Seeding and Protein Harvesting: The selected cells were processed according to the cell seeding procedure and protein harvesting procedure in Table III-2. Table III-2 Cell Seeding and Protein Harvesting Procedures
(2) To the collected supernatant, 5X SDS sample loading buffer was added, followed by denaturation at 95°C for 5 minutes. The denatured samples were then separated by SDS-PAGE electrophoresis on a polyacrylamide gel. Proteins were transferred to a nitrocellulose membrane (0.45 µm NC membrane), blocked with blocking buffer at room temperature for 1 hour, and subjected to antibody incubation and development procedures according to the antibody manufacturer's instructions (Cell Signaling Technology).
Half-Maximal Degradation Concentration value (the drug concentration required for degrading proteins by 50%, abbreviated as DC50) reads method: comparing the grayscale values of Western blot bands from drug-treated samples with those from blank DMSO-treated controls, and identifying the drug concentration range at which the grayscale value is half that of the DMSO-treated control bands.
DC50 values can be calculated using ImageJ software to measure grayscale values of Western blot bands from drug-treated samples. […]

IC50 (BXPC-3): 500 to 1000 nM | IC50 (THP-1): 500 to 1000 nM | IC50 (H520): 500 to 1000 nM | inhibition at 0.5 µM ([1]; at 0.5µM, read-out: Inhibition rate (%) at 0.5µM): 20 to 30% | inhibition at 2 µM ([1]; at 2 µM, read-out: Inhibition rate (%) at 2 µM): 60 to 80%
SMILES: Cn1cc(-c2cc(S(C)(=O)=O)ccc2OCc2cccc(NC3CCC(=O)NC3=O)c2)c2cc[nH]c2c1=O (stereo not drawn) [GT-04641, 3-((3-((2-(6-methyl-7-oxo-6,7-dihydro-1H-pyrrolo[2,3-c]pyridin-4-yl)-4-(methylsulfonyl)phenoxy)methyl)phenyl)amino)piperidine-2,6-dione]
Degradation of substrate protein AR (substrate protein remaining %) (AR): A (A is defined as 0% ≤ substrate protein remaining % ≤ 80%)
